Measurements published in patent publication US4680284A, “Modified phenylalanine peptidylaminodiols” (Abbott Laboratories, priority 1986, dated 1987).
pIC50: −log10 of the molar value.

Biological target: T1, human renal renin (Homo sapiens, UniProt P00797)
T1 construct: human renal renin, free from acid proteolytic activity; from tissue
T1 sequence (P00797 67-406): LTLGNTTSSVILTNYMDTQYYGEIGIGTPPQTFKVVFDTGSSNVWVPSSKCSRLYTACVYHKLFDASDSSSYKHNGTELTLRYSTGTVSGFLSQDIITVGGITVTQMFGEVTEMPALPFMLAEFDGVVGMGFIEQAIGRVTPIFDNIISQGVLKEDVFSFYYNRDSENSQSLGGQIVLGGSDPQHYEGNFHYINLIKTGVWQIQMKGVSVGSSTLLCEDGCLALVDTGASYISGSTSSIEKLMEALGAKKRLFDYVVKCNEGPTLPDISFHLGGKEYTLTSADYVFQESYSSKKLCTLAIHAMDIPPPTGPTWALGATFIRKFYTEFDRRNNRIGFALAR
Test: In vitro inhibition of human renal renin (angiotensin I formation measured by radioimmunoassay)
Type: biochemical
Details: human renal renin with human renin substrate (angiotensinogen), 37° C., pH 6.0

Row | Structure (SMILES) | pIC50
1 | CCOC(=O)NC1(C(=O)N[C@@H](Cc2c[nH]cn2)C(=O)N[C@@H](CC2CCCCC2)[C@@H](O)[C@@H](O)CC(C)C)Cc2ccccc2C1 [Example 5, EtOC-AICA-His Amide of 2(S)-Amino-1-cyclohexyl-3(R),4(S)-dihydroxy-6-methylheptane] | 7.82
2 | CC(C)C[C@H](O)[C@H](O)[C@H](CC1CCCCC1)NC(=O)[C@H](Cc1c[nH]cn1)NC(=O)C1(N)Cc2ccccc2C1 [Example 7, AICA-His Amide of 2(S)-Amino-1-cyclohexyl-3(R),4(S)-dihydroxy-6-methylheptane] | 6.52
3 | CCOC(=O)NC1(C(=O)N[C@@H](Cc2c[nH]cn2)C(=O)N[C@@H](CC2CCCCC2)[C@@H](O)[C@@H](O)CC(C)C)CCc2ccccc2C1 (stereo partly drawn) [Example 10, EtOC-(R,S)-ATCA-His Amide of 2(S)-Amino-1-cyclohexyl-3(R),4(S)-dihydroxy-6-methylheptane] | 8.30
4 | CCOC(=O)N1Cc2ccccc2CC1C(=O)N[C@@H](Cc1c[nH]cn1)C(=O)N[C@@H](CC1CCCCC1)[C@@H](O)[C@@H](O)CC(C)C (stereo partly drawn) [Example 13, EtOC-TIC-His Amide of 2(S)-Amino-1-cyclohexyl-3(R),4(S)-dihydroxy-6-methylheptane] | 8.00

Other lines, results leading:

Row | pIC50 | Structure (SMILES)
5 | 7.00 | CC(C)C[C@H](O)[C@H](O)[C@H](CC1CCCCC1)NC(=O)[C@H](Cc1c[nH]cn1)NC(=O)C1Cc2ccccc2C(=O)N1 (stereo partly drawn) [Example 15, OTIC-His Amide of 2(S)-Amino-1-cyclohexyl-3(R),4(S)-dihydroxy-6-methylheptane]
6 | 8.00 | CC(C)C[C@H](O)[C@H](O)[C@H](CC1CCCCC1)NC(=O)[C@H](Cc1c[nH]cn1)NC(=O)[C@@](C)(N)Cc1ccccc1 [Example 17, AMPA-His Amide of 2(S)-Amino-1-cyclohexyl-3(R),4(S)-dihydroxy-6-methylheptane]
7 | 8.05 | CC(=O)N[C@@](C)(Cc1ccccc1)C(=O)N[C@@H](Cc1c[nH]cn1)C(=O)N[C@@H](CC1CCCCC1)[C@@H](O)[C@@H](O)CC(C)C [Example 19, Acetyl-AMPA-His Amide of 2(S)-Amino-1-cyclohexyl-3(R),4(S)-dihydroxy-6-methylheptane]
8 | 7.60 | CC(C)C[C@H](O)[C@H](O)[C@H](CC1CCCCC1)NC(=O)[C@H](Cc1c[nH]cn1)NC(=O)C(N)(Cc1ccccc1)Cc1ccccc1 [Example 21, ADBA-His Amide of 2(S)-Amino-1-cyclohexyl-3(R),4(S)-dihydroxy-6-methylheptane]
